Experimental data from publication PMC7341485 (Chemical research in toxicology, 2019).
Entries after “also recorded” stand apart in the source; their conditions may differ. Counter-ions that a name gives are not always drawn. Like-named read-outs stand apart in the source and are kept apart here.

Assays:
[1] = tested on: iPSC-derived cortical glutamatergic neurons; experiment: Neurite outgrowth assay in iPSC-derived neurons; type: cell-based, human; details: for IC50: Homo sapiens, Neuron, 24 h, read-out: IC50 of neurite outgrowth inhibition
[2] = tested on: TGFβ, WNT, RAR and SHH pathways; experiment: Profile across developmental pathways; type: cell-based; details: sodium dimethyldithiocarbamate at 10 μM
[3] = tested on: SHH pathway, Gli1-luc NIH/3T3 cells; experiment: SHH-luc reporter gene assay; type: cell-based
[4] = tested on: TGFβ/SMAD signaling (SMAD2/3/4 complex), SBE-bla HEK 293T cells; experiment: SBE-bla antagonist assay; type: cell-based, human; details: for SBE Antagonist Efficacy: activity %, TGFβ1 only = 0, DMSO = -100
[5] = tested on: WNT pathway, TCF/LEF-luc HEK293 cells; experiment: WNT-luc reporter gene assay; type: cell-based, human
[6] = tested on: RAR pathway, RARE-luc C3RL4 cells; experiment: RAR-luc reporter gene assay; type: cell-based; details: 6 h
[7] = tested on: SMAD2/3/4 signaling, SBE-bla HEK 293T cells; experiment: SBE-bla assay, activation by native TGFR ligands; type: cell-based, human; details: Figure 2A
[8] = Homo sapiens, HEK-293T, read-out: IC50 in SBE-bla assay, primary screening

## Nc1ncn([C@@H]2O[C@H](CO)[C@@H](O)[C@H]2O)c(=O)n1 [5-Azacitidine]
[1]; 24 h treatment, Figure 5D
  inhibition of neurite outgrowth, in words: inhibited neurite outgrowth

## CN1C(=O)N(c2ccccc2Br)Cc2cnc(Nc3ccc4c(c3)OCC(CO)O4)nc21 (stereo not drawn) [PharmaGSID_48519]
[1]
  inhibition of neurite outgrowth, in words: did not inhibit neurite outgrowth; also recorded: didn’t inhibit neurite outgrowth

## CCCCN(CCCC)C(=S)[S-].[Na+] [Sodium dibutylcarbamodithioate]
[2]
  inhibition of developmental pathways, in words: inactive
[3]; conditioned medium, 24 h
  SHH Antagonist Efficacy: Inactive
  SHH Antagonist IC50: Inactive
[4]; TGFβ1-induced SBE-bla activity, HEK 293T, 5 h, Tables 2 and 3
  SBE Antagonist IC50: Inactive
[4]
  SBE Antagonist Efficacy: Inactive
[5]; WNT-3a stimulated, 24 h
  WNT Antagonist Efficacy: Inactive
  WNT Antagonist IC50: Inactive
[6]; retinol stimulated
  RAR Antagonist Efficacy: Inactive
  RAR Antagonist IC50: Inactive

## CCN(CC)C(=S)S [Sodium diethyldithiocarbamate]
[3]; Mus musculus, NIH3T3, 24 h, read-out: SHH Antagonist IC50
  IC50: 8920 nM
[3]; conditioned medium, 24 h
  SHH Antagonist Efficacy: −96.63%
[4]; Homo sapiens, HEK-293T, 5 h, read-out: SBE Antagonist IC50
  IC50: 11500 nM
[4]
  SBE Antagonist Efficacy: −58.53%
[5]; Homo sapiens, HEK293, 24 h, read-out: WNT Antagonist IC50
  IC50: 3690 nM
[5]; WNT-3a stimulated, 24 h
  WNT Antagonist Efficacy: −74.76%
[6]; read-out: RAR Antagonist IC50
  IC50: 15300 nM
[6]; retinol stimulated
  RAR Antagonist Efficacy: −113.16%

## CN(C)C(=S)SSC(=S)N(C)C [Thiram]
[1]
  IC50: 100 nM

## CC(C)C[C@H](NC(=O)[C@H](Cc1ccccc1)NC(=O)c1cnccn1)B(O)O [bortezomib]
[1]; 24 h treatment, Figure 5D
  inhibition of neurite outgrowth, in words: inhibited neurite outgrowth

## C=CC(=O)Nc1cc2c(Nc3ccc(F)c(Cl)c3)ncnc2cc1OCCCN1CCOCC1 [canertinib]
[1]; 24 h treatment, Figure 5D
  inhibition of neurite outgrowth, in words: inhibited neurite outgrowth

## CN(C)C(=S)[S-].CN(C)C(=S)[S-].[Cu+2] [copper dimethyl dithiocarbamates]
[4]; read-out: IC50 in SBE-bla assay, DTC cluster k35.18, Figure 3B
  IC50: 1620 nM

## Cc1nc(Nc2ncc(C(=O)Nc3c(C)cccc3Cl)s2)cc(N2CCN(CCO)CC2)n1 [dasatinib]
[1]; 24 h treatment, Figure 5D
  inhibition of neurite outgrowth, in words: did not inhibit neurite outgrowth; also recorded: didn’t inhibit neurite outgrowth
[4]; [8]
  IC50: 260 nM

## S=C(SSC(=S)N1CCCCC1)N1CCCCC1 [dicyclopentamethylenethiuram, dicyclopentamethylenethiuram disulfide]
[1]
  IC50: 820 nM
[4]; Homo sapiens, HEK-293T, read-out: IC50 in SBE-bla assay, DTC cluster k35.18
  IC50: 580 nM

## CCN(CC)C(=S)SSC(=S)N(CC)CC [disulfiram]
[1]
  IC50: 180 nM

## CN1CC[C@H](c2c(O)cc(O)c3c(=O)cc(-c4ccccc4Cl)oc23)[C@H](O)C1 [flavopiridol hydrochloride, reference compound]
[1]; 24 h treatment, Figure 5D
  inhibition of neurite outgrowth, in words: inhibited neurite outgrowth
[4]; [8]
  IC50: 20 nM

## CC(=O)[C@]1(O)Cc2c(O)c3c(c(O)c2[C@@H](O[C@H]2C[C@H](N)[C@H](O)[C@H](C)O2)C1)C(=O)c1ccccc1C3=O [idarubicin hydrochloride]
[1]; 24 h treatment, Figure 5D
  inhibition of neurite outgrowth, in words: inhibited neurite outgrowth

## COc1cccc2c1C(=O)c1c(O)c3c(c(O)c1C2=O)C[C@@](O)(C(=O)CO)C[C@@H]3O[C@H]1C[C@H](N2CCO[C@H](OC)C2)[C@H](O)[C@H](C)O1 [nemorubicin]
[1]
  inhibition of neurite outgrowth, in words: inhibited neurite outgrowth

## [F][Sn]([c]1ccccc1)([c]1ccccc1)[c]1ccccc1 [triphenyltin fluoride]
SBE-bla HEK 293T cells
  fold less cytotoxic in SBE-bla HEK 293T cells than in NSCs: 10 fold

## CC[C@]1(O)C[C@@H]2CN(CCc3c([nH]c4ccccc34)[C@@](C(=O)OC)(c3cc4c(cc3OC)N(C)[C@H]3[C@@](O)(C(=O)OC)[C@H](OC(C)=O)[C@]5(CC)C=CCN6CC[C@]43[C@@H]65)C2)C1 [vinblastine sulfate]
[1]; 24 h treatment, Figure 5D
  inhibition of neurite outgrowth, in words: inhibited neurite outgrowth

## TGFβ1: native TGFR ligand, human TGFβ1
[7]
  EC50 of activation of SBE-bla activity: 0.11 ng/mL

## TGFβ2: native TGFR ligand
[7]
  EC50 of activation of SBE-bla activity: 0.11 ng/mL

## TGFβ3: native TGFR ligand
[7]
  EC50 of activation of SBE-bla activity: 0.11 ng/mL

## dibutyltin
SBE-bla HEK 293T cells
  fold less cytotoxic in SBE-bla HEK 293T cells than in NSCs: 10 fold

## phenylmercuric acetate
SBE-bla HEK 293T cells
  fold less cytotoxic in SBE-bla HEK 293T cells than in NSCs: 10 fold
